Reference: PMC10895678 (Journal of Medicinal Chemistry, 2024)
“And” between values parts separate entries of the source, which are not always exact repeats. Equal values may be shown once. Read-outs that look alike come from different tables or passages of the source.

Experiments:
[1] = Mouse PK, multiple oral dosing of single compounds; format: in vivo, KM mice; conditions: for AUC(0-inf) / Cmax / Tmax / half-life: po
Description: Methods for combined single dosing (BGAz001–005) and dosing of single compounds multiple times (BGAz004 and BGAz005) are described in detail in the Supporting Information (PK Data).
Report on PK results of BGAz-004 by multiple oral dosing
7 Materials and instrument combined dosing
An MS2 Turnover type oscillator was purchased from IKA Work’s Guangzhou (China), and a 5415R ChromatographicanalyseswereconductedusinganAgilent1290InfinityIIhighperformanceliquidchromatography andAgilentTechnologies6470TripleQuadLC/MS.Propranolol(≥90%inpurity,internalstandard,IS)waspurchased fromtheSigmaChemicalCo.(China).Formicacid(HPLCgrade)andmethanol(HPLCgrade)werepurchasedfrom DIKMACo.(China).Allchemicalsandsolventswereanalyticalgrade.WaterwaspurifiedusingaMillipore(AK,USA) laboratoryultra-purewatersystem(0.2μmfilter).
KMmice,weighing25–35g(BeijingVitalRiverLaboratoryAnimalTechnologyCo.,Ltd.,China)wereutilisedforthe studies.The protocols were approved by the Animal Care and Use Committee, GIBH. Animals were maintained on standard animal chow and waterad libitum, in a climate-controlled room (23±1 °C 30–70% relative humidity, a minimumof tenexchangesof roomairperhouranda12hlight/darkcycle)foroneweekpriortoexperiments.
9 Pharmacokinetic studies
Compound BGAz-004 were dissolved in the solution containing DMSO (2%), ethanol (4%), Cremophor EL (4%) and ddH2O (90%).The mice were given solution with 30 mg/kg bygastric gavagefor 3 days.Whole blood samples (100μL)wereobtainedfromtheorbitalvenousplexusatthefollowingtimepointsafterthethirddaydosing:5,15,30 min and 1, 3, 5, 8, 24 hour. Whole blood samples were collected in heparinised tubes. The plasma fraction was immediately separated by centrifugation. The mice were humanely euthanasia by carbon dioxide 24 hours after […]
10 Plasma sample analysis
10.1 Standard curve sample preparation
ThecompoundsweredissolvedinDMSO(2mg/mL)anddilutedwithtoseriesconcentration(methanol:H 2O,1:1,10 μL) and blank plasma (50 μL) were added to 1.5 mL tubes and vortexed for 3 min, then acetonitrile-containing internalstandard(150μL)wasaddedandvortexedforafurther5min,andsubsequentlyspuninacentrifugeat13000 […]
10.2 Plasma and preparation
Plasmasampleswerepreparedusingaproteinprecipitationmethod.Solution(10μL,methanolH 2O,1:1)andplasma samples(50μL)wereaddedto1.5mLtubesandvortexfor3min,thenacetonitrile-containinginternalstandard(150 μL)wasaddedandvortexfor5min,andsubsequentlyspuninacentrifugeat13000× gfor40minat4°C.
Aftercentrifugation,supernatant(100μL)wastransferto96wellplatesandanalysedbyLC-MS/MSusinganAgilent 1290InfinityIIHPLCandanAgilentTechnologies6470TripleQuadLC/MS.
Report on PK results of BGAz-005 by multiple oral dosing
13 Materials and instrument combined dosing […]
fromtheSigmaChemicalCo.(China).Formicacid(HPLCgrade)andmethanol(HPLCgrade)werepurchased from […]
15 Pharmacokinetic studies
Compound BGAz-005 were dissolved in the solution containing DMSO (2%), ethanol (4%), Cremophor EL (4%) […]
16 Plasma sample analysis
16.1 Standard curve sample preparation
16.2 Plasma and preparation

HepG2 cells = assay: HepG2 mitochondrial dysfunction (Glu/Gal cytotoxicity, MTT); format: cell-based; conditions: glucose medium
Protocol: Compounds were solubilized to 30 mM in DMSO. The BGAz compounds were added to the HepG2 cell model in a 96-well microplate in half log dilutions from 100–0.0003 μM (final DMSO concentration 0.3%) using both glucose (DMEM consisting of 25 mM glucose) and galactose (DMEM consisting of 10 mM galactose) media. The compounds were incubated with the cell line for 24 h at 37 °C in a humidified CO2 tissue culture incubator, followed by cell viability staining with MTT (3-(4,5-dimethylthiazol-2-yl)-2.5-diphenyltetrazolium bromide) conversion to the Formazan product, determined by absorbance measurement. The cell viability IC50 was determined in HepG2 glucose and metabolism-modified HepG2 galactose, and the fold change difference between the Glu/Gal IC50 was determined. All experiments were performed in duplicate with the mitochondrial toxicity controls rotenone and Antimycin A and the cytotoxin control tamoxifen.

BCG pTIC6-fbpC = format: cell-based, Mycobacterium bovis BCG
[2] = multiple PO 30 mg/kg, times 4, mean of animals

**Q.** For `Brc1cc(Br)cc(C2CC(CN3CCCC3)N2Cc2ccccc2Br)c1` (stereo not drawn) [BGAz-004], which AUC(0-inf) ([1]; KM, mouse, plasma, 30 mg/kg, multiple PO 30 mg/kg, times 4, mean of animals, read-out: AUC(0-∞)) is on record?
**A.** Its AUC(0-inf) is 5420 ng·h/mL.

**Q.** What about the Cmax ([1]; KM, mouse, plasma, 30 mg/kg, multiple PO 30 mg/kg, times 4, mean of animals, read-out: Cmax) of the same compound?
**A.** The Cmax was 364 ng/mL.

**Q.** And the Tmax ([1]; KM, mouse, plasma, 30 mg/kg, multiple PO 30 mg/kg, times 4, mean of animals, read-out: Tmax)?
**A.** The Tmax was 1 h.

**Q.** What about the half-life ([1]; KM, mouse, plasma, 30 mg/kg, multiple PO 30 mg/kg, times 4, mean of animals, read-out: t1/2z (converted)) of the same compound?
**A.** The half-life was 8.07 h.

**Q.** And the AUC(0-inf) ([1]; KM, mouse, plasma, 30 mg/kg, multiple PO, times 4, 30 mg/kg, summary table, read-out: AUC(0-∞))?
**A.** Its AUC(0-inf) is 5420 ng·h/mL.

**Q.** And the Cmax ([1]; KM, mouse, plasma, 30 mg/kg, multiple PO, times 4, 30 mg/kg, summary table, read-out: Cmax)?
**A.** The Cmax was 364 ng/mL.

**Q.** What about the half-life ([1]; KM, mouse, plasma, 30 mg/kg, multiple PO, times 4, 30 mg/kg, summary table, read-out: T1/2 (converted)) of the same compound?
**A.** The half-life was 8.07 h.

**Q.** And the Tmax ([1]; KM, mouse, plasma, 30 mg/kg, multiple PO, times 4, 30 mg/kg, summary table, read-out: Tmax)?
**A.** Its Tmax is 1 h.

**Q.** And the AUC(0-inf) ([1]; KM, mouse, plasma, 30 mg/kg, multiple daily dosing 4 × 30 mg/kg PO, read-out: AUC0-inf)?
**A.** Its AUC(0-inf) is 5420 ng·h/mL.

**Q.** What about the Cmax ([1]; KM, mouse, plasma, 30 mg/kg, multiple daily dosing 4 × 30 mg/kg PO, read-out: Cmax (Mouse, P.O.)) of the same compound?
**A.** Its Cmax is 363 ng/mL.

**Q.** And the half-life ([1]; KM, mouse, plasma, 30 mg/kg, multiple daily dosing 4 × 30 mg/kg PO, read-out: T1/2 (Mouse, P.O.) (converted))?
**A.** The half-life was 8.1 h.

**Q.** What about the Tmax ([1]; KM, mouse, plasma, 30 mg/kg, multiple daily dosing 4 × 30 mg/kg PO, read-out: Tmax (Mouse, P.O.)) of the same compound?
**A.** Its Tmax is 1 h.

**Q.** What about the concentration at 0.083 h ([1]; KM, mouse, plasma, multiple PO 30 mg/kg, times 4, 0.083 h) of the same compound?
**A.** The concentration at 0.083 h was 214 nM and 115 ng/mL.

**Q.** What about the concentration at 0.25 h ([1]; KM, mouse, plasma, multiple PO 30 mg/kg, times 4, 0.25 h) of the same compound?
**A.** Its concentration at 0.25 h is 361 nM and 195 ng/mL.

**Q.** And the concentration at 0.5 h ([1]; KM, mouse, plasma, multiple PO 30 mg/kg, times 4, 0.5 h)?
**A.** Its concentration at 0.5 h is 590 nM and 319 ng/mL.

**Q.** And the concentration at 1 h ([1]; KM, mouse, plasma, multiple PO 30 mg/kg, times 4, 1 h)?
**A.** The concentration at 1 h was 674 nM and 364 ng/mL.

**Q.** And the concentration at 3 h ([1]; KM, mouse, plasma, multiple PO 30 mg/kg, times 4, 3 h)?
**A.** The concentration at 3 h was 594 nM and 321 ng/mL.

**Q.** What about the concentration at 5 h ([1]; KM, mouse, plasma, multiple PO 30 mg/kg, times 4, 5 h) of the same compound?
**A.** Its concentration at 5 h is 268 ng/mL and 496 nM.

**Q.** And the concentration at 8 h ([1]; KM, mouse, plasma, multiple PO 30 mg/kg, times 4, 8 h)?
**A.** Its concentration at 8 h is 243 ng/mL and 450 nM.

**Q.** And the concentration at 24 h ([1]; KM, mouse, plasma, multiple PO 30 mg/kg, times 4, 24 h)?
**A.** The concentration at 24 h was 63.7 ng/mL and 118 nM.

**Q.** And the AUC(0-t) ([1]; KM, mouse, plasma, multiple PO 30 mg/kg, times 4, mean of animals)?
**A.** The AUC(0-t) was 4760 ng·h/mL.

**Q.** And the CL/F ([1]; KM, mouse, plasma, multiple PO 30 mg/kg, times 4, mean of animals, read-out: CLz/F (converted))?
**A.** The CL/F was 95.4 mL/min/kg.

**Q.** And the MRT last ([1]; KM, mouse, plasma, multiple PO 30 mg/kg, times 4, mean of animals, read-out: MRT(0-t))?
**A.** The MRT last was 7.85 h.

**Q.** What about the MRT inf ([1]; KM, mouse, plasma, multiple PO 30 mg/kg, times 4, mean of animals, read-out: MRT(0-∞)) of the same compound?
**A.** The MRT inf was 11.7 h.

**Q.** What about the Vd/F ([1]; KM, mouse, plasma, multiple PO 30 mg/kg, times 4, mean of animals, read-out: Vz/F) of the same compound?
**A.** Its Vd/F is 67.5 L/kg.

**Q.** What about the k el ([1]; KM, mouse, plasma, multiple PO 30 mg/kg, times 4, mean of animals, read-out: λz (converted)) of the same compound?
**A.** Its k el is 2.89e-05 s⁻¹.

**Q.** What about the “AUMC(0-t)” value [1, 2] of the same compound?
**A.** The value was 36514.994 h*h*μg.

**Q.** And the “AUMC(0-∞)” value [1, 2]?
**A.** The value was 62413.77 h*h*μg.

**Q.** What about the C_last [1, 2] of the same compound?
**A.** Its C_last is 46.151 µg.

**Q.** And the “R_AUC(t/∞)” value [1, 2]?
**A.** The value was 87.55%.

**Q.** And the “VRT(0-t)” value [1, 2]?
**A.** The value was 41.471 h^2.

**Q.** What about the “VRT(0-∞)” value [1, 2] of the same compound?
**A.** Its value is 162.525 h^2.

**Q.** What about the “T1/2 (Mouse, P.O.)” value ([1]; multiple daily dosing 4 × 30 mg/kg PO, 30 mg/kg) of the same compound?
**A.** Its value is 8.07 h.

**Q.** What about the “HepG2 cytotoxicity (in words)” value (HepG2 cells) of the same compound?
**A.** Its value is “negligible effect”.

**Q.** And the BCG pTIC6-fbpC MIC (BCG pTIC6-fbpC)?
**A.** Its BCG pTIC6-fbpC MIC is 34 µM.

**Q.** What about the “increase in MIC upon overexpression of FbpC” value (BCG pTIC6-fbpC) of the same compound?
**A.** The value was “two-fold increase”.
